Laboratory results: patent US8710043B2, “TRPM8 antagonists and their use in treatments” (Amgen Inc., priority 2011, dated 2014)

Molecular target: T1, human TRPM8 (Homo sapiens, UniProt Q7Z2W7)
T1 construct: expressed in transfected cells; host or cells: Chinese hamster ovary (CHO) cells, T-REx tetracycline-inducible system, co-transfected with aequorin
Assay: Luminescence readout assay for measuring intracellular calcium, icilin activation
Format: cell-based
Settings: CHO cells expressing human TRPM8, aequorin luminescence, 1 μM icilin activation; read-out: hTRPM8 IC50
In short: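 The read-out was luminescence reporting intracellular calcium, recorded by a CCD-based luminometer. Compounds were preincubated for 2.5 min before agonist challenge with 1 μM icilin. Human TRPM8 was expressed in a stable T-REx CHO line, induced with 0.5 μg/mL tetracycline the day before.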

T1 sequence (Q7Z2W7 whole entry): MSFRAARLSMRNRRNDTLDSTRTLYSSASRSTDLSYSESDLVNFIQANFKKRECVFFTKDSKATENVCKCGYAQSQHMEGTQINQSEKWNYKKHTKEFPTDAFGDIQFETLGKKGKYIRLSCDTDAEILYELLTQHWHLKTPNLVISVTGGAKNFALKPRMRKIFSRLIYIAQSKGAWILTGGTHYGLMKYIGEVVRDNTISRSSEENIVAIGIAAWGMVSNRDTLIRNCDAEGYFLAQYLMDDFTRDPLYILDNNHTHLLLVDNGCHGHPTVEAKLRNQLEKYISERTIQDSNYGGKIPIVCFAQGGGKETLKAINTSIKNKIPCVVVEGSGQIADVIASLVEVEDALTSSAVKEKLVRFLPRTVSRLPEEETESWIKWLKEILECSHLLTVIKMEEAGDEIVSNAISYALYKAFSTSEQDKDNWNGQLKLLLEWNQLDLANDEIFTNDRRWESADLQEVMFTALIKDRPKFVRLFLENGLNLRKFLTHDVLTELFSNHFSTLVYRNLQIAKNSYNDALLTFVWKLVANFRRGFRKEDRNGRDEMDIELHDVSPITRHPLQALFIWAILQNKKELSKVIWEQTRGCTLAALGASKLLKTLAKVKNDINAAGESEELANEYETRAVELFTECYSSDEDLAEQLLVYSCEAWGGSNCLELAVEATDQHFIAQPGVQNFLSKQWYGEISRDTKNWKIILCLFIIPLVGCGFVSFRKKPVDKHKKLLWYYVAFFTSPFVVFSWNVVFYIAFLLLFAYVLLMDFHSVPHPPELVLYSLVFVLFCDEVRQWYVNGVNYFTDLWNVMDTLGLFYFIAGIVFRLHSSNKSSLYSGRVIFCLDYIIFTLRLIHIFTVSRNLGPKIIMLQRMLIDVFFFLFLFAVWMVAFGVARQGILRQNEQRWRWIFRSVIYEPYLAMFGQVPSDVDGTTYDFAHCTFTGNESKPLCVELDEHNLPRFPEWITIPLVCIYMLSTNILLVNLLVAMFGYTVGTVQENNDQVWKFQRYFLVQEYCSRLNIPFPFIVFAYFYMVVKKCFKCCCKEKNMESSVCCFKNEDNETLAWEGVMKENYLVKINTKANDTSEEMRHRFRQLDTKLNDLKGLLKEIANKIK

| SMILES | IC50 [µM] |
| --- | --- |
| O=C(N[C@@H](c1ccc(C(F)(F)F)cc1)c1ncccc1F)c1ccc(=O)n(C2COC2)c1 [Example 305, (S)-N-((3-fluoropyridin-2-yl)(4-(trifluoromethyl)phenyl)methyl)-1-(oxetan-3-yl)-6-oxo-1,6-dihydropyridine-3-carboxamide] | 0.0296 |
| O=C1CC(C(=O)N[C@@H](c2ccc(C(F)(F)F)cc2)c2ncccc2C(F)(F)F)CN1 (stereo partly drawn) [Example 163, 5-oxo-N-((S)-(4-(trifluoromethyl)phenyl)(3-(trifluoromethyl)pyridin-2-yl)methyl)pyrrolidine-3-carboxamide] | 3.18 |
| CC(C)(C)OC(=O)N1CC(CC(=O)N[C@@H](c2ccc(C(F)(F)F)cc2)c2ncccc2C(F)(F)F)C1 [Example 229, (S)-tert-butyl 3-(2-oxo-2-(((4-(trifluoromethyl)phenyl)(3-(trifluoromethyl)pyridin-2-yl)methyl)amino)ethyl)azetidine-1-carboxylate] | 0.354 |
| O=C(N[C@@H](c1ccc(OC(F)(F)F)c(F)c1)c1ncccc1F)c1cc2oc(=O)[nH]c2cn1 [Example 438, (S)—N-((3-Fluoro-4-(trifluoromethoxy)phenyl)(3-fluoropyridin-2-yl)methyl)-2-oxo-2,3-dihydrooxazolo[4,5-c]pyridine-6-carboxamide] | 0.0114 |
| Cc1cc([C@H](NC(=O)c2ccc(=O)[nH]c2)c2ncccc2F)ccc1OC(F)(F)F [Example 381, (S)-N-((3-fluoropyridin-2-yl)(3-methyl-4-(trifluoromethoxy)phenyl)methyl)-6-oxo-1,6-dihydropyridine-3-carboxamide] | 0.0104 |
| O=C(N[C@@H](c1cnc2cccc(Cl)c2c1)c1ncccc1C(F)(F)F)c1ccc2cccnc2c1 [Example 9, (S)-N-((5-chloroquinolin-3-yl)(3-(trifluoromethyl)pyridin-2-yl)methyl)quinoline-7-carboxamide] | 0.146 |
| CC(C)Cc1cc(C(=O)N[C@@H](c2ccc(C(F)(F)F)c(F)c2)c2ncccc2C(F)(F)F)c2ccccc2n1 [Example 156, (S)-N-((3-fluoro-4-(trifluoromethyl)phenyl)(3-(trifluoromethyl)pyridin-2-yl)methyl)-2-isobutylquinoline-4-carboxamide bis (2,2,2-trifluoroacetate)] | 0.301 |
| Cc1cccnc1[C@@H](NC(=O)c1ccc2oc(=O)[nH]c2c1)c1ccc(OC(F)(F)F)c(F)c1 [Example 358, (S)-N-((3-fluoro-4-(trifluoromethoxy)phenyl)(3-methylpyridin-2-yl)methyl)-2-oxo-2,3-dihydrobenzo[d]oxazole-5-carboxamide] | 0.0141 |
| CC(=O)Nc1ccc(C(=O)N[C@@H](c2ccc(OC(F)(F)F)c(F)c2)c2ncccc2F)cc1O [Example 390, (S)-4-acetamido-N-((3-fluoro-4-(trifluoromethoxy)phenyl)(3-fluoropyridin-2-yl)methyl)-3-hydroxybenzamide] | 0.136 |
| CNS(=O)(=O)c1ccc(C(=O)N[C@@H](c2ccc(C(F)(F)F)cc2)c2ncccc2F)cc1 [Example 74, (S)-N-((3-fluoropyridin-2-yl)(4-(trifluoromethyl)phenyl)methyl)-4-(N-methylsulfamoyl)benzamide] | 0.0853 |
| O=C(N[C@@H](c1ccc(C(F)(F)F)cc1)c1ncccc1C(F)(F)F)c1cccc(=O)[nH]1 [Example 63, (S)-6-oxo-N-((4-(trifluoromethyl)phenyl)(3-(trifluoromethyl)pyridin-2-yl)methyl)-1,6-dihydropyridine-2-carboxamide] | 0.134 |
| CC(C)(O)c1ccc(C(=O)N[C@@H](c2ccc(C(F)(F)F)cc2)c2ncccc2C(F)(F)F)cc1 [Example 121, (S)-4-(2-hydroxypropan-2-yl)-N-((4-(trifluoromethyl)phenyl)(3-(trifluoromethyl)pyridin-2-yl)methyl)benzamide] | 0.247 |
| C=CCN1C(=O)c2ccc(C(=O)N[C@@H](c3ccc(C(F)(F)F)cc3)c3ncccc3C(F)(F)F)cc2C1=O [Example 268, (S)-2-Allyl-1,3-dioxo-N-((4-(trifluoromethyl)phenyl)(3-(trifluoromethyl)pyridin-2-yl)methyl)isoindoline-5-carboxamide] | 0.156 |
| COc1cccnc1[C@@H](NC(=O)c1ccc2cccnc2c1)c1ccc(C(F)(F)F)cc1 [Example 28, (S)-N-((3-methoxypyridin-2-yl)(4-(trifluoromethyl)phenyl)methyl)quinoline-7-carboxamide] | 0.194 |
| O=C(N[C@@H](c1ccc(OC(F)(F)F)c(F)c1)c1ncccc1F)c1ccc2oc(=O)[nH]c2n1 [Example 425, (S)—N-((3-Fluoro-4-(trifluoromethoxy)phenyl)(3-fluoropyridin-2-yl)methyl)-2-oxo-2,3-dihydrooxazolo[4,5-b]pyridine-5-carboxamide] | 0.0105 |
| O=C(NC(c1ccc(OC(F)(F)F)c(F)c1)c1cccc(F)c1F)c1ccc(=O)[nH]c1 (centres unmarked) [Example 412, N-((2,3-difluorophenyl)(3-fluoro-4-(trifluoromethoxy)phenyl)methyl)-6-oxo-1,6-dihydropyridine-3-carboxamide] | 0.048 |

| SMILES | IC50 [µM] |
| --- | --- |
| O=C(N[C@@H](c1ccc(C(F)(F)F)cc1)c1ncccc1F)c1ccc2nnnn2c1 [Example 307, (S)-N-((3-fluoropyridin-2-yl)(4-(trifluoromethyl)phenyl)methyl)tetrazolo[1,5-a]pyridine-6-carboxamide] | 0.0454 |
| CC(C)(C)c1cccnc1[C@@H](NC(=O)c1ccc2cccnc2c1)c1ccc(C(F)(F)F)cc1 [Example 286, (S)—N-((3-(tert-Butyl)pyridin-2-yl)(4-(trifluoromethyl)phenyl)-methyl)quinoline-7-carboxamide 2,2,2-trifluoroacetate] | 1.11 |
| Cc1ccc([C@H](NC(=O)c2ccc(=O)[nH]c2)c2ncccc2F)cc1 [Example 379, (S)-N-((3-fluoropyridin-2-yl)(p-tolyl)methyl)-6-oxo-1,6-dihydropyridine-3-carboxamide] | 0.27 |
| COc1cccc(C(=O)NC(c2ccc(C(F)(F)F)cc2)c2ncccc2F)c1 (centres unmarked) [Example 214, N-((3-fluoropyridin-2-yl)(4-(trifluoromethyl)phenyl)methyl)-3-methoxybenzamide] | 0.121 |
| O=C(N[C@@H](c1ccc(OC(F)(F)F)cc1)c1ncccc1F)c1cc2n(n1)CCCO2 [Example 356, (S)-N-((3-fluoropyridin-2-yl)(4-(trifluoromethoxy)phenyl)methyl)-6,7-dihydro-5H-pyrazolo[5,1-b][1,3]oxazine-2-carboxamide] | 0.0784 |
| O=C(N[C@@H](c1ccc(Cl)c(Cl)c1)c1ncccc1C(F)(F)F)c1ccc(=O)[nH]c1 [Example 3, (S)-N-((3,4-dichlorophenyl)(3-(trifluoromethyl)pyridin-2-yl)methyl)-6-hydroxynicotinamide] | 0.0177 |
| O=C(N[C@@H](c1ccc(C(F)(F)F)cc1)c1ncccc1C(F)(F)F)c1ccoc1 [Example 199, (S)-N-((4-(trifluoromethyl)phenyl)(3-(trifluoromethyl)pyridin-2-yl)methyl)furan-3-carboxamide] | 0.0776 |
| O=C(N[C@@H](c1cnc2ccc(Cl)cc2c1)c1ncccc1C(F)(F)F)c1ccc2cccnc2c1 [Example 4, (S)-N-((6-chloroquinolin-3-yl)(3-(trifluoromethyl)pyridin-2-yl)methyl)quinoline-7-carboxamide] | 0.044 |
| O=C(CN1CCOC1=O)N[C@@H](c1ccc(C(F)(F)F)cc1)c1ncccc1C(F)(F)F [Example 154, (S)-2-(2-oxooxazolidin-3-yl)-N-((4-(trifluoromethyl)phenyl)(3-(trifluoromethyl)pyridin-2-yl)methyl)acetamide] | 2.53 |
| O=C(N[C@@H](c1ccc(C(F)(F)F)cc1)c1ncccc1C(F)(F)F)c1cccc(C(=O)c2ccccc2)c1 [Example 246, (S)-3-benzoyl-N-((4-(trifluoromethyl)phenyl)(3-(trifluoromethyl)pyridin-2-yl)methyl)benzamide 2,2,2-trifluoroacetate] | 0.21 |
| O=C(N[C@@H](c1ccc(C(F)(F)F)cc1)c1ncccc1F)c1ccc(=O)n(C(F)F)c1 [Example 396, (S)-1-(difluoromethyl)-N-((3-fluoropyridin-2-yl)(4-(trifluoromethyl)phenyl)methyl)-6-oxo-1,6-dihydropyridine-3-carboxamide] | 0.0201 |
| COc1cncc(C(=O)N[C@@H](c2ccc(C(F)(F)F)cc2)c2ncccc2C(F)(F)F)c1 [Example 38, (S)-5-methoxy-N-((4-(trifluoromethyl)phenyl)(3-(trifluoromethyl)pyridin-2-yl)methyl)nicotinamide] | 0.0777 |
| Cc1cccnc1[C@@H](NC(=O)c1ccc(-c2nc(=O)o[nH]2)cc1)c1ccc(C(F)(F)F)cc1 [Example 323, (S)-N-((3-methylpyridin-2-yl)(4-(trifluoromethyl)phenyl)methyl)-4-(5-oxo-2,5-dihydro-1,2,4-oxadiazol-3-yl)benzamide] | 0.0367 |
| O=C(N[C@@H](c1ccc(C(F)(F)F)cc1)c1ncccc1C(F)(F)F)c1ccncc1 [Example 178, (S)-N-((4-(trifluoromethyl)phenyl)(3-(trifluoromethyl)pyridin-2-yl)methyl)isonicotinamide] | 0.0262 |
| Cn1cc(C(=O)N[C@@H](c2ccc(OC(F)(F)F)cc2)c2ncccc2F)ccc1=O [Example 252, (S)-N-((3-fluoropyridin-2-yl)(4-(trifluoromethoxy)phenyl)methyl)-1-methyl-6-oxo-1,6-dihydropyridine-3-carboxamide 2,2,2-trifluoroacetate] | 0.0247 |
| O=C(N[C@@H](c1ccc(C(F)(F)F)cc1)c1ncccc1C(F)(F)F)c1ccc(F)cc1 [Example 183, (S)-4-fluoro-N-((4-(trifluoromethyl)phenyl)(3-(trifluoromethyl)pyridin-2-yl)methyl)benzamide] | 0.0396 |
